# Laboratory results published in US6998415B2, “Substituted sulfonylphenylheterocycles as cyclooxygenase-2 and 5-lipoxygenase inhibitors” (Pharmacia Corporation, priority 1996, dated 2006).
# Columns and labels:
# [1] = molecular target: T1, COX-2 (UniProt P35354); assay: Assay for COX-2 activity in vitro (PGE2 ELISA, recombinant enzyme); type: biochemical, human or murine; conditions: recombinant COX-2, arachidonic acid 10 μM, pre-incubation 10–20 minutes
# T1 sequence (P35354 1-604): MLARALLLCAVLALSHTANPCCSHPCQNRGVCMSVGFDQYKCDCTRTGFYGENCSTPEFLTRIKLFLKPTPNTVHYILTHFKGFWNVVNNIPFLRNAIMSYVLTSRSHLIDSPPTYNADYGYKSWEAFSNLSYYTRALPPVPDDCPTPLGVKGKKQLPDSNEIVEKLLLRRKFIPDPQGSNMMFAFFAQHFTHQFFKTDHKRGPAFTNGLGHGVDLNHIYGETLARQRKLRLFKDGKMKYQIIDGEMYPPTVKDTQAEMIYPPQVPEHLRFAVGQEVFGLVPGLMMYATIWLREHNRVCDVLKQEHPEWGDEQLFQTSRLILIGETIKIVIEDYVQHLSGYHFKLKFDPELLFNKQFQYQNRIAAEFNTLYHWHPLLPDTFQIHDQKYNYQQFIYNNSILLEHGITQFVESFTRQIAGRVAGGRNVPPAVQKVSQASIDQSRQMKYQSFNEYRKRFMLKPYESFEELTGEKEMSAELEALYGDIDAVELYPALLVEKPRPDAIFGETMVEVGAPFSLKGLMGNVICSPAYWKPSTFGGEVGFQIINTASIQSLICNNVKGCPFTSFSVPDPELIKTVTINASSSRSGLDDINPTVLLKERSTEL
# Description: Evaluation of COX-1 and COX-2 Activity in vitro
# The COX-2 inhibit on activity of the compounds or this invention illustrated in the Examples was determined by the following methods. a. Preparation of Recombinant COX Baculoviruses
# (§1) Recombinant COX-1 and COX-2 were prepared as described by Gierse et al, [J. Biochem., 305, 479–84 (1995)]. A 2.0 kb fragment containing the coding region of either human or murine COX-1 or human or murine COX-2 was cloned into a BamHI site of the baculovirus transfer vector pVL1393 (Invitrogen) to generate the baculovirus transfer vectors for COX-1 and COX-2 in a manner similar to the method of D. R. O'Reilly et al (Baculovirus Expression Vectors: A Laboratory Manual (1992)). Recombinant baculoviruses were isolated by transfecting 4 μg of baculovirus transfer vector DNA into SF9 insect cells (2×10^8) along with 200 ng of linearized baculovirus plasmid DNA by the calcium phosphate method. See M. D. Summers and G. E. Smith, A Manual of Methods for Baculovirus Vectors and Insect Cell Culture Procedures, Texas Agric. Exp. Station Bull. 1555 (1987). Recombinant viruses were purified by three rounds of plaque purification and high titer (10^7–10^8 pfu/ml) stocks of virus were prepared. For large scale production, SF9 insect cells were infected in 10 liter fermentors (0.5×10^6/ml) with the recombinant baculovirus stock such that the multiplicity of infection was 0.1. After 72 hours the cells were centrifuged and the cell pellet homogenized in Tris/Sucrose (50 mM: 25%, pH 8.0) containing 1% 3-[(3-cholamidopropyl)dimethylammonio]-1-propanesulfonate (CHAPS). The homogenate was centrifuged at 10,000×G for 30 minutes, and the resultant supernatant was stored at −80° C. before being assayed for COX activity. […]
# (§2) b. Assay for COX-1 and COX-2 Activity
# (§3) COX activity was assayed as PGE2 formed/μg protein/time using an ELISA to detect the prostaglandin released. CHAPS-solubilized insect cell membranes containing the appropriate COX enzyme were incubated in a potassium phosphate buffer (50 mM, pH 8.0) containing epinephrine, phenol, and heme with the addition of arachidonic acid (10 μM). Compounds were pre-incubated with the enzyme for 10–20 minutes prior to the addition of arachidonic acid. Any reaction between the arachidonic acid and the enzyme was stopped after ten minutes at 37° C./room temperature by transferring 40 μl of reaction mix into 160 μl ELISA buffer and 25 μM indomethacin. The PGE2 formed was measured by standard ELISA technology (Cayman Chemical).
# [2] = molecular target: COX-1 (UniProt P23219); assay: Assay for COX-1 activity in vitro (PGE2 ELISA, recombinant enzyme); type: biochemical, human or murine; conditions: recombinant COX-1, arachidonic acid 10 μM, pre-incubation 10–20 minutes
# Description: Evaluation of COX-1 and COX-2 Activity in vitro a. Preparation of Recombinant COX Baculoviruses
# as §1, §2, §3
# [3] = molecular target: T2, 5-lipoxygenase (5-LO) (Homo sapiens, UniProt P09917); assay: Assay for 5-lipoxygenase activity: calcium ionophore-induced LTB4 production in human whole blood; type: cell-based; conditions: A-23187 (20 μg/ml)-induced LTB4 in human whole blood; mean IC50
# T2 construct: calcium ionophore-induced Leukotriene B4 (LTB4) production in human whole blood; endogenous in cells; host or cells: human whole blood (healthy donors), diluted 1:4 in RPMI 1640
# T2 sequence (P09917 1-674): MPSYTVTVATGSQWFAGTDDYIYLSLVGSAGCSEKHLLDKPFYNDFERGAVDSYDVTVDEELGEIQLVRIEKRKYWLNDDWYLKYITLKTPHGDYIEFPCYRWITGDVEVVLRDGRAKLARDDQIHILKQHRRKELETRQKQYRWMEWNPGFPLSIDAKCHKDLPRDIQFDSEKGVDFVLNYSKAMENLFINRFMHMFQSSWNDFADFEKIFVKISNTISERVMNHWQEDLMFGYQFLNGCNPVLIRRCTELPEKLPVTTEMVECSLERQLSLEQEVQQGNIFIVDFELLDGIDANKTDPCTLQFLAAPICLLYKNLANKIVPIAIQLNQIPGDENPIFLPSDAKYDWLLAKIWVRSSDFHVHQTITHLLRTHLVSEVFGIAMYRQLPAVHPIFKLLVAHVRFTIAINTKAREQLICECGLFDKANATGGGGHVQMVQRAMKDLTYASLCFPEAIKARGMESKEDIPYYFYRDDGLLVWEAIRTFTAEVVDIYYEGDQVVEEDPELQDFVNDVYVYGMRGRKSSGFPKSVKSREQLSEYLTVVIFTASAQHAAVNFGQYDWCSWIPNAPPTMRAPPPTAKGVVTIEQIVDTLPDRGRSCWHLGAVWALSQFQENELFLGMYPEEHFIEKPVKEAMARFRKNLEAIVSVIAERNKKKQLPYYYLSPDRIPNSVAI
# Description: Assay for 5-Lipoxygenase Activity
# The 5-lipoxygenase (5-LO) activity of the compounds were determined by the calcium ionophore-induced Leukotriene B4 (LTB4) production in human whole blood. Venous blood was collected from healthy human donors using heparin as an anti-coagulant. Human blood samples (0.2 ml of a 1:4 dilution in RPMI 1640 medium) were incubated in 96-well culture plates for 15 minutes at 37° C. with test compounds dissolved in ethanol (EtOH; final concentration<1%), or vehicle. Typically 7 concentrations of test compounds were examined in duplicate. A-23187 [Sigma] was added to the blood to a final concentration of 20 μg/ml, and the mixtures were incubated for 10 minutes at 37° C. The reaction was stopped by placing the samples on ice. The samples were then centrifuged at 800×g at 4° C. for 10 minutes to pellet the cells, and the supernatants were recovered for quantitation of LTB4 by LISA (Cayman Chemical Co.; sensitivity 3 pg/ml). IC50's were estimated from a four parameter logistic model with two parameters fixed, the minimum (0% inhibition) and maximum (100% inhibition). The IC50 value is the concentration that produces 50% inhibition between the fixed values of the minimum and maximum. Data is reported as the mean IC50 for each compound.
SMILES,IC50 [1] [µM],IC50 [2] [µM],IC50 [3] [µM],melting point [°C]
"COC1(c2cc(F)cc(OCc3cc(-c4ccc(Cl)cc4)n(-c4ccc(S(N)(=O)=O)cc4)n3)c2)CCOCC1 [Example 1, 4-[5-(4-Chlorophenyl)-3-[[3-fluoro-5-(3,4,5,6-tetrahydro-4-methoxy-2H-pyran-4-yl)phenoxy]methyl]-1H-pyrazol-1-yl]benzenesulfonamide]",< 0.1,38,0.15,
"COC1(c2cccc(OCc3nc(-c4ccc(F)cc4)c(-c4ccc(S(C)(=O)=O)cc4)o3)c2)CCOCC1 [Example 2, 4-(4-Fluorophenyl)-5-(4-(methylsulfonyl)phenyl)-2-[[3-(3,4,5,6-tetrahydro-4-methoxy-2H-pyran-4-yl)phenoxy]methyl]oxazole]",0.2,> 10,0.05,
"COC1(c2cc(F)cc(Oc3nc(-c4ccccc4)c(-c4ccc(S(N)(=O)=O)cc4)o3)c2)CCOCC1 [Example 4, 4-[2-[3-Fluoro-5-(4-methoxy-3,4,5,6-tetrahydro-2H-pyran-4-yl)phenoxy]-4-phenyl-5-oxazolyl]benzenesulfonamide]",< 0.1,< 0.1,14,159 to 161
"COC1(c2cccc(Oc3nc(-c4ccccc4)c(-c4ccc(S(N)(=O)=O)cc4)o3)c2)CCOCC1 [Example 5, 4-[2-[3-(4-Methoxy-3,4,5,6-tetrahydro-2H-pyran-4-yl)phenoxy]-4-phenyl-5-oxazolyl]benzenesulfonamide]",< 0.1,< 0.1,17,145 to 147
"COc1cccc(SCc2cc(-c3ccc(Cl)cc3)n(-c3ccc(S(N)(=O)=O)cc3)n2)c1 [Example 6, 4-[5-(4-Chlorophenyl)-3-(3-methoxyphenyl)thiomethyl-1H pyrazol-1-yl]benzenesulfonamide]",< 0.1,2.2,0.44,
"COc1cccc(OCc2cc(-c3ccc(Cl)cc3)n(-c3ccc(S(N)(=O)=O)cc3)n2)c1 [Example 7, 4-[5-(4-Chlorophenyl)-3-(3-methoxyphenyl)oxymethyl-1H-pyrazol-1-yl]benzenesulfonamide]",< 0.1,3.8,0.65,
"COC1(c2cc(F)cc(OCc3nc(-c4ccccc4)c(-c4ccc(S(N)(=O)=O)cc4)o3)c2)CCOCC1 [Example 8, 4-[2-[[3-Fluoro-5-(3,4,5,6-tetrahydro-4-methoxypyran-4-yl)phenoxy]methyl]-4-phenyloxazol-5-yl]benzenesulfonamide]",< 0.1,1.3,0.3,70 to 80
"COC(=O)C(Cc1cccc(C2(OC)CCOCC2)c1)c1nc(-c2ccccc2)c(-c2ccc(S(N)(=O)=O)cc2)o1 (stereo not drawn) [Example 9, Methyl 5-[4-(aminosulfonyl)phenyl]-α-[[3-(3,4,5,6-tetrahydro-4-methoxypyran-4-yl)phenyl]methyl]-4-phenyloxazole-2-acetate]",10,80,> 10,88.7 to 94.9

# Continued, values first:
IC50 [1] [µM],IC50 [2] [µM],IC50 [3] [µM],melting point [°C],SMILES
< 0.1,> 100,> 10,86 to 100,"COC1(c2cc(F)cc(OCC#Cc3ccc(Cc4nc(-c5ccccc5)c(-c5ccc(S(N)(=O)=O)cc5)o4)cc3)c2)CCOCC1 [Example 12, 4-[2-[[4-[3-[3-Fluoro-5-(3,4,5,6-tetrahydro-4-methoxypyran-4-yl)phenoxy]-1-propynyl]phenyl]methyl]-4-phenyloxazol-5-yl]benzenesulfonamide]"
< 0.1,5,0.2,70 to 72,"COC1(c2cc(F)cc(OCc3nc(-c4ccc(F)cc4)c(-c4ccc(S(N)(=O)=O)cc4)o3)c2)CCOCC1 [Example 14, 4-[2-[[3-Fluoro-5-(3,4,5,6-tetrahydro-4-methoxypyran-4-yl)phenoxy]methyl]-4-(4-fluorophenyl)oxazol-5-yl]benzenesulfonamide]"
< 0.1,> 100,> 10,,"COC1(c2cc(F)cc(OCc3onc(-c4ccccc4)c3-c3ccc(S(N)(=O)=O)cc3)c2)CCOCC1 [Example 16, 4-[5-[[3-Fluoro-5-(3,4,5,6-tetrahydro-4-methoxypyran-4-yl)phenoxy]methyl]-3-phenylisoxazol-4-yl]benzenesulfonamide]"
0.5,> 100,9.8,62.1 to 71.2,"COC1(c2cccc(COCc3nc(-c4ccccc4)c(-c4ccc(S(N)(=O)=O)cc4)o3)c2)CCOCC1 [Example 17, 4-[2-[[[3-(3,4,5,6-Tetrahydro-4-methoxypyran-4-yl)phenylmethyl]oxy]methyl]-4-phenyloxazol-5-yl]benzenesulfonamide]"
,,,77.2 to 81.7,"COC1(c2cccc(CSCc3nc(-c4ccccc4)c(-c4ccc(S(N)(=O)=O)cc4)o3)c2)CCOCC1 [Example 18, 4-[2-[[[3-(3,4,5,6-Tetrahydro-4-methoxypyran-4-yl)phenylmethyl]thio]methyl]-4-phenyloxazol-5-yl]benzenesulfonamide]"
1.1,> 100,> 10,,COC1(c2cc(F)cc(OCC(=O)NCCc3nc(-c4ccccc4)c(-c4ccc(S(N)(=O)=O)cc4)o3)c2)CCOCC1 [Example 22]
